Data set [1] concerns the target T1, 3',5'-cyclic-AMP phosphodiesterase 4B (Homo sapiens, UniProt Q07343). The experiment in a line: Inhibition of recombinant human PDE4B using cAMP as substrate after 30 mins.
Data set [2] deals with Splenocyte. The data set can be described thus: Inhibition of LPS-induced TNFalpha production in Balb/c mouse splenocytes after 18 to 24 hrs by AlphaLISA assay. In kind it is functional, cell-based. For orientation: Bead proximity is the source of the signal in Alpha formats.
Data set [3] deals with T1, 3',5'-cyclic-AMP phosphodiesterase 4B. The experiment in a line: Inhibition of recombinant human PDE4B using cAMP as substrate at 10 uM after 30 mins.
Data set [4] deals with Mus musculus. The experiment in a line: Inhibition of LPS-induced pulmonary neutrophilia in BALB/c mouse assessed as reduction of neutrophils level in bronchoalveolar lavage fluid at 1 mg/kg administered intratracheally 30 mins before LPS challenge measured after 4 to 5 hrs. Format: functional. Particulars: route endotracheal.
The target in data set [5] is T1, 3',5'-cyclic-AMP phosphodiesterase 4B. The data set can be described thus: Inhibition of recombinant human PDE4B using cAMP as substrate at 3 uM after 30 mins.
Data set [6] has the same target. The data set can be described thus: Inhibition of recombinant human PDE4B using cAMP as substrate at 1 uM after 30 mins.
Data set [7] can be described thus: Metabolic stability of the compound in mouse liver microsomes after 30 mins. Format: ADME, Microsome. Particulars: read-out: Stability. For orientation: Microsomes from liver hold many membrane-bound enzymes, among them those of drug oxidation.
Data set [8] is described as follows: Octanol-phosphate buffered saline distribution coefficient, log D of the compound at pH 7.4. Format: physicochemical.
The nature of data set [9]: Cmax in mouse at 10 mg/kg, ip. In kind it is ADME, organism-based. Set-up: dose 10 mg/kg, route intraperitoneal. Particulars: in vivo.
Data set [10] is described as follows: Terminal half life in mouse at 10 mg/kg, ip. Set-up: dose 10 mg/kg, route intraperitoneal. As to conditions: in vivo, read-out: beta t1/2 (converted). In kind it is ADME, organism-based.
The test system of data set [11] is Mus musculus. The experiment in a line: Inhibition of LPS-induced pulmonary neutrophilia in ip dosed BALB/c mouse assessed as reduction of neutrophils level in bronchoalveolar lavage fluid administered 30 mins before LPS challenge measured after 4 to 5 hrs. Format: functional. Particulars: read-out: ID50 (the source's name).
The nature of data set [12]: AUC in mouse at 10 mg/kg, ip. In kind it is ADME, organism-based. Set-up: dose 10 mg/kg, route intraperitoneal. Particulars: plasma.

Results on 26 compounds are retold here after ChEMBL document CHEMBL2439955, “Synthesis and biological evaluation of 5-carbamoyl-2-phenylpyrimidine derivatives as novel and potent PDE4 inhibitors” (Bioorg Med Chem, 2013).

The IC50 is the concentration needed to halve the response being measured. As usually defined, the inhibition is the relative decrease from the control value, in per cent. In general, inhibition in vivo refers to the percentage by which the read-out fell short of the control. One may read the logD as lipophilicity at a set pH, counting ionised and neutral species. The term Cmax denotes the peak of the concentration-time curve. In general, AUC refers to concentration integrated over time.

T1 sequence (Q07343 whole entry): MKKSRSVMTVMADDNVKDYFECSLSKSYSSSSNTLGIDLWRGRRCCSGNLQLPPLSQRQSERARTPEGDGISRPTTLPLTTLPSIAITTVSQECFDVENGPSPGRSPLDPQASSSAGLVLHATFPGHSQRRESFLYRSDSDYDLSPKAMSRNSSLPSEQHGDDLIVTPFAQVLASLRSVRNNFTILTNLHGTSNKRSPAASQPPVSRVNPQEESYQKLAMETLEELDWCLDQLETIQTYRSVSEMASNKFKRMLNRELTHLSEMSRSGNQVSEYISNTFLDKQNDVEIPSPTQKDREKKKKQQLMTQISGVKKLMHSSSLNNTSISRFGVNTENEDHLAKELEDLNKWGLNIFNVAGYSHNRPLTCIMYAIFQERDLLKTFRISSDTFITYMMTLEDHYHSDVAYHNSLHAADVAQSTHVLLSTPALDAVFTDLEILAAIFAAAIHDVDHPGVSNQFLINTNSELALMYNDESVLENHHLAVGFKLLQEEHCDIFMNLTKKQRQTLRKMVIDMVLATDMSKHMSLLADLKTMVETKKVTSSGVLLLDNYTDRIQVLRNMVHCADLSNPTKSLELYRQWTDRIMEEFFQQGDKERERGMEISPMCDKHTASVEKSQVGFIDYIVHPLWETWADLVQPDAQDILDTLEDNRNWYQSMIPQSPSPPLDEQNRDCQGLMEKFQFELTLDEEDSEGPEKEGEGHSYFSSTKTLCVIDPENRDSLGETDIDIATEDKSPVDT

Regarding `CS(=O)(=O)NC(=O)Cc1ccc(Nc2nc(-c3ccccc3)ncc2C(N)=O)cc1`, the 50% inhibitory concentration (IC50) in data set [1] was 490 nM; in data set [2] it was 4800 nM.
On to `Cc1nc(-c2ccccc2)nc(Nc2ccc(CC(=O)O)cc2)c1C(N)=O`, for which the IC50 in data set [1] was 4000 nM.
As for `O=C(O)Cc1ccc(Nc2nc(-c3ccccc3)nc3c2C(=O)NCC3)cc1`, the IC50 in [1] was determined as 47 nM; in [2], 460 nM.
As to `CC(C)(C)CNC(=O)Cc1ccc(Nc2nc(-c3cncnc3)ncc2C(N)=O)cc1`, the IC50 in [1] stood at 110 nM.
For `CN(C)C(=O)c1cnc(-c2ccccc2)nc1Nc1ccc(CC(=O)O)cc1`, the inhibition in [3] amounted to 8%.
On to `NC(=O)c1cnc(-c2ccccc2)nc1Nc1ccc(CC(=O)O)cc1`, for which the IC50 came to 200 nM in [1] and 690 nM in data set [2].
In data set [2], `O=C(Nc1c(Cl)cncc1Cl)c1ccc(OC(F)F)c(OCC2CC2)c1` [ROFLUMILAST] returned a half-inhibitory concentration (IC50) of 1.2 nM. In addition, the inhibition in vivo at 1 mg/kg in data set [4] was found to be 47%.
As for `NC(=O)c1cnc(-c2ccccc2)nc1Nc1ccc(CC(=O)NCC2CC2)cc1`, the half-maximal inhibitory concentration (IC50) in data set [1] amounted to 16 nM; in data set [2], 18 nM.
For the compound `CC(C)CNC(=O)Cc1ccc(Nc2nc(-c3ccccc3)nc3c2C(=O)NCC3)cc1`, the figures for the concentration for half-maximal inhibition (IC50) in data set [1] and in data set [2] were 7.3 nM and 0.21 nM, respectively. Moreover, the inhibition in vivo at 1 mg/kg in data set [4] was 41%.
In the case of `O=C(O)Cc1ccc(Nc2nc(-c3ccccc3)ncc2C(=O)NO)cc1`, the inhibition in data set [5] worked out at 42%.
For `NC(=O)Cc1ccc(Nc2nc(-c3ccccc3)ncc2C(N)=O)cc1`, the values for the 50% inhibitory concentration (IC50) in data set [1] and in data set [2] were 120 nM and 74 nM, respectively.
The corresponding values for `CC(C)(C)NC(=O)Cc1ccc(Nc2nc(-c3ccccc3)ncc2C(N)=O)cc1` are 110 nM and 49 nM.
As to `CC(C)(C)CNC(=O)Cc1ccc(Nc2nc(-c3cccnc3)ncc2C(N)=O)cc1`, the IC50 was found to be 29 nM in data set [1] and 23 nM in data set [2].
The corresponding values for `CC(C)(C)CNC(=O)Cc1ccc(Nc2nc(-c3ccoc3)ncc2C(N)=O)cc1` are 11 nM and 1000 nM.
The corresponding values for `CCCNC(=O)Cc1ccc(Nc2nc(-c3ccccc3)ncc2C(N)=O)cc1` are 120 nM and 47 nM.
The corresponding values for `CC(C)(C)CNC(=O)Cc1ccc(Nc2nc(-c3ccc4[nH]ccc4c3)ncc2C(N)=O)cc1` are 8.2 nM and 840 nM.
`NC(=O)c1cnc(-c2ccccc2)nc1Nc1ccc(CC(=O)NO)cc1`: the IC50 in [1] amounted to 7.1 nM; in data set [2] it was 43 nM.
For the compound `CC(C)CNC(=O)Cc1ccc(Nc2nc(-c3ccccc3)ncc2C(N)=O)cc1`, the IC50 in [1] worked out at 11 nM; in data set [2] it was 12 nM.
On to `CC(C)(C)CNC(=O)Cc1ccc(Nc2nc(-c3ccsc3)ncc2C(N)=O)cc1`, for which the inhibition in [6] was determined as 18%.
Consider `CC(C)(C)CNC(=O)Cc1ccc(Nc2nc(-c3ccccc3)ncc2C(N)=O)cc1`, for which the remaining at 0.5 h in data set [7] is 52%. In data set [8], the logD came to 4.9. Besides, the peak level in [9] (Cmax) was 1490 ng/mL. Further, the half-inhibitory concentration (IC50) turned out to be 8.3 nM in [1] and 3 nM in [2]. For the same compound, the half-life in [10] is 3.2 h. In addition, the ED50 in [11] is 16 mg/kg. In [12], this compound showed an AUC of 3990 ng·h/mL.
In the case of `C=C(C)c1ncc(C(N)=O)c(Nc2ccc(CC(=O)NCC(C)(C)C)cc2)n1`, the 50% inhibitory concentration (IC50) turned out to be 3.7 nM in data set [1] and 9.6 nM in [2].
For `CN(C)c1ncc(C(N)=O)c(Nc2ccc(CC(=O)NCC(C)(C)C)cc2)n1`, in that order: 16 nM and 7.1 nM.
For `CC(C)(C)CNC(=O)Cc1ccc(Nc2nc(N3CCCC3)ncc2C(N)=O)cc1`, in that order: 13 nM and 3.8 nM.
Turning to `CNC(=O)c1cnc(-c2ccccc2)nc1Nc1ccc(CC(=O)O)cc1`, in [1], the 50% inhibitory concentration (IC50) is 8200 nM.
Same read-out and setting: with `CSc1nc(-c2ccccc2)nc(Nc2ccc(CC(=O)O)cc2)c1C(N)=O` the figure was 2000 nM; with `CC(C)(C)CNC(=O)Cc1ccc(Nc2nc(NN3CCCCC3)ncc2C(N)=O)cc1`, 6500 nM.
